Assay results: patent publication US8871465B2 (priority 2009, dated 2014)

Assays:
[1] = tested on: ATCC 10876 (Bacillus cereus group); details: pH 7.2
[2] = tested on: ATCC 33019 (Bacillus cereus group); details: pH 7.2
[3] = tested on: Bacillus lentus ATCC 10840; details: pH 7.2
[4] = tested on: Bacillus megaterium ATCC 14581; details: pH 7.2
[5] = tested on: PaeniBacillus polymyxa ATCC 21551; details: pH 7.2
[6] = tested on: ATCC 6463 (Bacillus cereus group); details: pH 7.2
[7] = tested on: ATCC 6464 (Bacillus cereus group); details: pH 7.2
[8] = tested on: Bacillus pumilus ATCC 7061; details: pH 7.2
[9] = tested on: Bacillus licheniformis 93.08.043; details: pH 7.2
[10] = tested on: Bacillus cereus ATCC 7064
Bacillus cereus = details: pH 7.2
[11] = tested on: Bacillus circulans ATCC 4513; details: pH 7.2
[12] = tested on: Bacillus sphaericus 8710054; details: pH 7.2
[13] = tested on: other Gram-positive bacteria; details: pH 7.2
[14] = tested on: NCTC 11145 (Bacillus cereus group); details: pH 7.2
L. monocytogenes 0301902 = details: 37° C., pH 7.2, 1 000 CFU, detection threshold 30 000 RFU
Experimental: (§1) Various pure strains of the Bacillus genus and also other Gram-positive bacteria were tested in a microplate in the presence of the medium below. A reading of the appearance of the fluorescence in each of the various wells of the microplate was then performed at different times over the course of 44 h of incubation at 37° C.
(§2) The medium having the following composition was used (composition in g/l), pH 7.2:
(§3) The wells of the microplate are inoculated with 10 colony-forming units (CFU) of bacteria of the Bacillus cereus group and 1 000 CFU for the other Bacillus that are non cereus and other Gram-positive bacteria. The microplate is then incubated for 44 h at 37° C. in a microplate reader in order to evaluate the PC-PLC activity of these various strains in the form of kinetics of hydrolysis of the substrate 4 MU-CP, i.e to detect and measure the appearance of fluorescence. The detection threshold of the measuring apparatus is fixed at 30 000 RFU (relative fluorescence unit).

L. ivanovii 0002147 = details: 37° C., pH 7.2, 1 000 CFU, detection threshold 30 000 RFU
Experimental: as §1, §2, §3

S. aureus 8407603 = details: 37° C., pH 7.2, 1 000 CFU, detection threshold 30 000 RFU
Experimental: as §1, §2, §3

L. ivanovii ATCC 49954 = details: 37° C., pH 7.2, 1 000 CFU, detection threshold 30 000 RFU
Experimental: as §1, §2, §3

[15] = tested on: L. monocytogenes ATCC 19118; details: 37° C., pH 7.2, 1 000 CFU, detection threshold 30 000 RFU
Experimental: as §1, §2, §3

[16] = tested on: Bacillus subtilis ATCC 6051; details: 37° C., pH 7.2, 1 000 CFU, detection threshold 30 000 RFU
Experimental: as §1, §2, §3

S. aureus 25923 = details: 37° C., pH 7.2, 1 000 CFU, detection threshold 30 000 RFU
Experimental: as §1, §2, §3

[17] = tested on: Bacillus cereus ATCC 7064; details: pH 7.2
[18] = tested on: ATCC 9139 (Bacillus cereus group); details: pH 7.2
[19] = tested on: 0240015 (Bacillus cereus group); details: pH 7.2
[20] = Stability of the substrate in aqueous medium; format: physicochemical; details: medium at pH 7.2; a pH of 6.8 is required
[21] = as indicated in U.S. Pat. No. 6,558,917; cited from earlier work

## Cc1cc(=O)oc2cc(OP(=O)([O-])OCC[N+](C)(C)C)ccc12 [4 MU-PC, 4-methylumbelliferyl choline phosphate]
[1]
  Levels of fluorescence in 24 h: >60000 RFU
  Levels of fluorescence in 40 h: >60000 RFU
[2]
  Levels of fluorescence in 24 h: >60000 RFU
  Levels of fluorescence in 40 h: >60000 RFU
[3]
  Levels of fluorescence in 24 h: 5000 RFU
  Levels of fluorescence in 40 h: 10000 RFU
[4]
  Levels of fluorescence in 24 h: 5000 RFU
  Levels of fluorescence in 40 h: 5000 RFU
[5]
  Levels of fluorescence in 24 h: 5000 RFU
  Levels of fluorescence in 40 h: 10000 RFU
[6]
  Levels of fluorescence in 24 h: >60000 RFU
  Levels of fluorescence in 40 h: >60000 RFU
[7]
  Levels of fluorescence in 24 h: >60000 RFU
  Levels of fluorescence in 40 h: >60000 RFU
[8]
  Levels of fluorescence in 24 h: 5000 RFU
  Levels of fluorescence in 40 h: 10000 RFU
[9]
  Levels of fluorescence in 24 h: 2000 RFU
  Levels of fluorescence in 40 h: 2000 RFU
[10]
  Reduction of the detection time at pH 7.2 compared with pH 6.8: 10 h
Bacillus cereus
  Incubation time to positive signal (PC-PLC activity): ≥ 15 h
[11]
  Levels of fluorescence in 24 h: 10000 RFU
  Levels of fluorescence in 40 h: 20000 RFU
[12]
  Levels of fluorescence in 24 h: 20000 RFU
  Levels of fluorescence in 40 h: >60000 RFU
[13]
  Incubation time to positive signal (PC-PLC activity): > 40 h
[14]
  Levels of fluorescence in 24 h: >60000 RFU
  Levels of fluorescence in 40 h: >60000 RFU
L. monocytogenes 0301902; 24 h
  Levels of fluorescence in 24 h: 5000 RFU
L. monocytogenes 0301902; 40 h
  Levels of fluorescence in 40 h: 10000 RFU
L. ivanovii 0002147; 24 h
  Levels of fluorescence in 24 h: 2000 RFU
L. ivanovii 0002147; 40 h
  Levels of fluorescence in 40 h: 10000 RFU
S. aureus 8407603; 24 h
  Levels of fluorescence in 24 h: 2000 RFU
S. aureus 8407603; 40 h
  Levels of fluorescence in 40 h: 2000 RFU
L. ivanovii ATCC 49954; 24 h
  Levels of fluorescence in 24 h: 2000 RFU
L. ivanovii ATCC 49954; 40 h
  Levels of fluorescence in 40 h: 10000 RFU
[15]; 24 h
  Levels of fluorescence in 24 h: 4000 RFU
[15]; 40 h
  Levels of fluorescence in 40 h: 15000 RFU
[16]; 24 h
  Levels of fluorescence in 24 h: 10000 RFU
[16]; 40 h
  Levels of fluorescence in 40 h: 20000 RFU
S. aureus 25923; 24 h
  Levels of fluorescence in 24 h: 2000 RFU
S. aureus 25923; 40 h
  Levels of fluorescence in 40 h: 2000 RFU
[17]
  Levels of fluorescence in 24 h: >60000 RFU
  Levels of fluorescence in 40 h: >60000 RFU
[18]
  Levels of fluorescence in 24 h: >60000 RFU
  Levels of fluorescence in 40 h: >60000 RFU
[19]
  Levels of fluorescence in 24 h: >60000 RFU
  Levels of fluorescence in 40 h: >60000 RFU

## Cc1cc(=O)oc2cc(OP(=O)(O)OC3C(O)C(O)C(O)C(O)C3O)ccc12 (stereo not shown) [4 MU-MIP, 4-methylumbelliferyl myoinositol-1-phosphate]
[20]
  Stability of the substrate at pH 7.2: instability of the substrate being too great
[21]
  Stability in an aqueous medium: reduced stability
